Data as given in article PMC5580309, “Molecular-scale features that govern the effects of O-glycosylation on a carbohydrate-binding module” (Chemical Science, 2015).
Bridge positions count the residues as written; N and C are the ends. Square brackets hold non-standard residues; d marks the D form. Peptide text beside a SMILES is read from it. * marks the point of attachment. X7 = CC(=O)N[C@H]1[C@@H](O)[C@H](O)[C@@H](CO)O[C@@H]1*; αMan = OC[C@H]1O[C@H](*)[C@@H](O)[C@@H](O)[C@@H]1O; X9 = OC[C@H]1O[C@H](*)[C@H](O)[C@@H](O)[C@H]1O

Molecular target: T1, thermolysin (Bacillus thermoproteolyticus, UniProt P00800)
T1 sequence (P00800 233-548): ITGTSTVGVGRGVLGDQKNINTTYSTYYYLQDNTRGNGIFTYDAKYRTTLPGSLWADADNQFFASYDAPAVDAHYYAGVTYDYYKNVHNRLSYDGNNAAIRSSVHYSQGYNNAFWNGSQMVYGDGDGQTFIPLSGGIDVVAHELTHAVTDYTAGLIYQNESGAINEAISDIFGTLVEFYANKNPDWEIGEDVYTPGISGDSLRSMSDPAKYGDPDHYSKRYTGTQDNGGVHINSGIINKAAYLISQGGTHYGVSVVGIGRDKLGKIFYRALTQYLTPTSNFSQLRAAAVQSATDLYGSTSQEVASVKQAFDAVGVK
Experiment: Proteolytic stability: half-life to thermolysin degradation
Assay type: in vitro ADME
Conditions: for half-life: thermolysin (isolated protease), thermolysin degradation, mean of three trials ± SD, procedures as described previously (ESI ref 18); for Change in Half-Life to Thermolysin Degradation: glyco-variant minus its corresponding unglycosylated CBM (e.g. 2-1), *** not used in the correlation plot
Procedure: All error bars reported are standard deviations of data achieved from three separate trials.
cellulose that were determined in accordance with our procedures as described previously 18.
The results are presented as mean of three trials ± SD. *Denotes an averaged value of four trials

SMILES | half-life | Change in Half-Life to Thermolysin Degradation
CC[C@H](C)[C@@H]1NC(=O)CNC(=O)CNC(=O)[C@@H](NC(=O)[C@H](CCC(N)=O)NC(=O)CNC(=O)[C@H](Cc2ccc(O)cc2)NC(=O)[C@H](C)NC(=O)[C@H](CO)NC(=O)[C@H](CCC(N)=O)NC(=O)[C@@H](N)[C@@H](C)O)CSSC[C@@H]2NC(=O)[C@H]([C@@H](C)O)NC(=O)[C@H]([C@@H](C)O)NC(=O)CNC(=O)[C@H](CO)NC(=O)[C@H](C)NC(=O)[C@H](CSSC[C@@H](C(=O)N[C@@H](CC(C)C)C(=O)O)NC(=O)[C@H](CCC(N)=O)NC(=O)[C@H](CO)NC(=O)[C@H](Cc3ccc(O)cc3)NC(=O)[C@H](Cc3ccc(O)cc3)NC(=O)[C@@H]3CCCN3C(=O)[C@H](CC(N)=O)NC(=O)[C@H](CC(C)C)NC(=O)[C@H](C(C)C)NC(=O)[C@H](CCC(N)=O)NC2=O)NC(=O)[C@H](C(C)C)NC(=O)[C@H]([C@@H](C)O)NC(=O)[C@@H]2CCCN2C(=O)CNC(=O)[C@H](CO)NC(=O)[C@H](Cc2ccc(O)cc2)NC(=O)CNC1=O [CBM variant 8] (H-TQSAYGQCGGIGYSGPTVCASGTTCQVLNPYYSQCL-OH; disulfide 8-25, 19-35) | 13.2 ± 3.6 min | –
CC[C@H](C)[C@@H]1NC(=O)CNC(=O)CNC(=O)[C@@H](NC(=O)[C@H](CCC(N)=O)NC(=O)CNC(=O)[C@H](Cc2ccc(O)cc2)NC(=O)[C@H](Cc2c[nH]cn2)NC(=O)[C@H](CO[C@H]2O[C@H](CO)[C@@H](O)[C@H](O)[C@@H]2O)NC(=O)[C@H](CCC(N)=O)NC(=O)[C@H](C)N)CSSC[C@@H]2NC(=O)[C@H]([C@@H](C)O)NC(=O)[C@H]([C@@H](C)O)NC(=O)CNC(=O)[C@H](CO)NC(=O)[C@H](C)NC(=O)[C@H](CSSC[C@@H](C(=O)N[C@@H](CC(C)C)C(=O)O)NC(=O)[C@H](CCC(N)=O)NC(=O)[C@H](CO)NC(=O)[C@H](Cc3ccc(O)cc3)NC(=O)[C@H](Cc3ccc(O)cc3)NC(=O)[C@@H]3CCCN3C(=O)[C@H](CC(N)=O)NC(=O)[C@H](CC(C)C)NC(=O)[C@H](C(C)C)NC(=O)[C@H](CCC(N)=O)NC2=O)NC(=O)[C@H](C(C)C)NC(=O)[C@H]([C@@H](C)O)NC(=O)[C@@H]2CCCN2C(=O)CNC(=O)[C@H](CO)NC(=O)[C@H](Cc2ccc(O)cc2)NC(=O)CNC1=O [CBM variant 5] (H-AQS(αMan)HYGQCGGIGYSGPTVCASGTTCQVLNPYYSQCL-OH; disulfide 8-25, 19-35) | 44.4 ± 7.2 min | 34.8 min
CC[C@H](C)[C@@H]1NC(=O)CNC(=O)CNC(=O)[C@@H](NC(=O)[C@H](CCC(N)=O)NC(=O)CNC(=O)[C@H](Cc2ccc(O)cc2)NC(=O)[C@H](Cc2c[nH]cn2)NC(=O)[C@H](CO[C@H]2O[C@H](CO)[C@H](O)[C@H](O)[C@H]2O)NC(=O)[C@H](CCC(N)=O)NC(=O)[C@@H](N)[C@@H](C)O)CSSC[C@@H]2NC(=O)[C@H]([C@@H](C)O)NC(=O)[C@H]([C@@H](C)O)NC(=O)CNC(=O)[C@H](CO)NC(=O)[C@H](C)NC(=O)[C@H](CSSC[C@@H](C(=O)N[C@@H](CC(C)C)C(=O)O)NC(=O)[C@H](CCC(N)=O)NC(=O)[C@H](CO)NC(=O)[C@H](Cc3ccc(O)cc3)NC(=O)[C@H](Cc3ccc(O)cc3)NC(=O)[C@@H]3CCCN3C(=O)[C@H](CC(N)=O)NC(=O)[C@H](CC(C)C)NC(=O)[C@H](C(C)C)NC(=O)[C@H](CCC(N)=O)NC2=O)NC(=O)[C@H](C(C)C)NC(=O)[C@H]([C@@H](C)O)NC(=O)[C@@H]2CCCN2C(=O)CNC(=O)[C@H](CO)NC(=O)[C@H](Cc2ccc(O)cc2)NC(=O)CNC1=O [CBM variant 26] (H-TQS(X9)HYGQCGGIGYSGPTVCASGTTCQVLNPYYSQCL-OH; disulfide 8-25, 19-35) | 30 ± 3 min | 16.2 min
CC[C@H](C)[C@@H]1NC(=O)CNC(=O)CNC(=O)[C@@H](NC(=O)[C@H](CCC(N)=O)NC(=O)CNC(=O)[C@H](Cc2ccc(O)cc2)NC(=O)[C@H](Cc2c[nH]cn2)NC(=O)[C@@H](CO[C@H]2O[C@H](CO)[C@@H](O)[C@H](O)[C@@H]2O)NC(=O)[C@H](CCC(N)=O)NC(=O)[C@@H](N)[C@@H](C)O)CSSC[C@@H]2NC(=O)[C@H]([C@@H](C)O)NC(=O)[C@H]([C@@H](C)O)NC(=O)CNC(=O)[C@H](CO)NC(=O)[C@H](C)NC(=O)[C@H](CSSC[C@@H](C(=O)N[C@@H](CC(C)C)C(=O)O)NC(=O)[C@H](CCC(N)=O)NC(=O)[C@H](CO)NC(=O)[C@H](Cc3ccc(O)cc3)NC(=O)[C@H](Cc3ccc(O)cc3)NC(=O)[C@@H]3CCCN3C(=O)[C@H](CC(N)=O)NC(=O)[C@H](CC(C)C)NC(=O)[C@H](C(C)C)NC(=O)[C@H](CCC(N)=O)NC2=O)NC(=O)[C@H](C(C)C)NC(=O)[C@H]([C@@H](C)O)NC(=O)[C@@H]2CCCN2C(=O)CNC(=O)[C@H](CO)NC(=O)[C@H](Cc2ccc(O)cc2)NC(=O)CNC1=O [CBM variant 17] (H-TQ[dS](αMan)HYGQCGGIGYSGPTVCASGTTCQVLNPYYSQCL-OH; disulfide 8-25, 19-35) | 10.2 ± 1.2 min | –
CC[C@H](C)[C@@H]1NC(=O)CNC(=O)CNC(=O)[C@@H](NC(=O)[C@H](CCC(N)=O)NC(=O)CNC(=O)[C@H](Cc2ccc(O)cc2)NC(=O)[C@H](Cc2c[nH]cn2)NC(=O)[C@H](CO[C@H]2O[C@H](CO)[C@@H](O)[C@H](O)[C@@H]2O)NC(=O)[C@H](CCC(N)=O)NC(=O)[C@@H](N)[C@@H](C)O)CSSC[C@@H]2NC(=O)[C@H]([C@@H](C)O)NC(=O)[C@H]([C@@H](C)O)NC(=O)CNC(=O)[C@H](CO)NC(=O)[C@H](C)NC(=O)[C@H](CSSC[C@@H](C(=O)N[C@@H](CC(C)C)C(=O)O)NC(=O)[C@H](CCC(N)=O)NC(=O)[C@H](CO)NC(=O)[C@H](Cc3ccc(O)cc3)NC(=O)[C@H](Cc3ccc(O)cc3)NC(=O)[C@@H]3CCCN3C(=O)[C@H](CC(N)=O)NC(=O)[C@H](CC(C)C)NC(=O)[C@H](C(C)C)NC(=O)[C@H](CCC(N)=O)NC2=O)NC(=O)[C@H](C(C)C)NC(=O)[C@H]([C@@H](C)O)NC(=O)[C@@H]2CCCN2C(=O)CNC(=O)[C@H](CO)NC(=O)[C@H](Cc2ccc(O)cc2)NC(=O)CNC1=O [CBM variant 2] (H-TQS(αMan)HYGQCGGIGYSGPTVCASGTTCQVLNPYYSQCL-OH; disulfide 8-25, 19-35) | 65.4 ± 0.6 min | 51.6 min
CC[C@H](C)[C@@H]1NC(=O)CNC(=O)CNC(=O)[C@@H](NC(=O)[C@H](CCC(N)=O)NC(=O)CNC(=O)[C@H](Cc2ccc(O)cc2)NC(=O)[C@H](Cc2c[nH]cn2)NC(=O)[C@H](CO[C@H]2O[C@H](CO)[C@@H](O)[C@H](O)[C@@H]2NC(C)=O)NC(=O)[C@H](CCC(N)=O)NC(=O)[C@@H](N)[C@@H](C)O)CSSC[C@@H]2NC(=O)[C@H]([C@@H](C)O)NC(=O)[C@H]([C@@H](C)O)NC(=O)CNC(=O)[C@H](CO)NC(=O)[C@H](C)NC(=O)[C@H](CSSC[C@@H](C(=O)N[C@@H](CC(C)C)C(=O)O)NC(=O)[C@H](CCC(N)=O)NC(=O)[C@H](CO)NC(=O)[C@H](Cc3ccc(O)cc3)NC(=O)[C@H](Cc3ccc(O)cc3)NC(=O)[C@@H]3CCCN3C(=O)[C@H](CC(N)=O)NC(=O)[C@H](CC(C)C)NC(=O)[C@H](C(C)C)NC(=O)[C@H](CCC(N)=O)NC2=O)NC(=O)[C@H](C(C)C)NC(=O)[C@H]([C@@H](C)O)NC(=O)[C@@H]2CCCN2C(=O)CNC(=O)[C@H](CO)NC(=O)[C@H](Cc2ccc(O)cc2)NC(=O)CNC1=O [CBM variant 21] (H-TQS(X7)HYGQCGGIGYSGPTVCASGTTCQVLNPYYSQCL-OH; disulfide 8-25, 19-35) | 41.4 ± 5.4 min | 27.6 min
